Molecules are shown by their SMILES. Bounds are passed on as bounds.

Common to all, as to format: cell-based
Assay [1] addresses T1, human EGFR exon 20 insertion ASV (V769_D770insASV) (Homo sapiens, UniProt P00533, INS769ASV).
T1 construct: expressed in transfected cells; host or cells: Ba/F3 (murine pro-B) cells transduced with lentivirus from pLVX-IRES puro
As to the kind of experiment: Ba/F3-EGFR-Exon20-ASV cell anti-proliferative assay (CellTiter 96 MTS, 72 h). The settings on record: Ba/F3-EGFR-Exon20-ASV cells. As for the experimental part: (§1) An expression vector, pLVX-IRES puro (Clontech) coding for human EGFR exon 20 insertions NPG (H773_V774insNPG) or ASV (V769_D770insASV), was transfected into HEK293 cells by the Trans-Lentiviral ORF Packaging System (Thermo Scientific), to produce virus encoding EGFR exon 20 insertions. Ba/F3 (DSMZ) cells maintained in RPMI 1640 medium supplemented with 10% fetal bovine serum, 200 μM L-glutamine/l 200 μg/mL penicillin/200 μg/mL streptomycin (Life Technology) and 10 ng/mL IL-3 (R&D system), were infected by EGFR Exon20 virus and subsequently selected by puromycin (Life Technology) selection and IL-3 depletion. […] The anti-proliferative activity of compounds were determined as follows: BaF3-EGFR-Exon20 cells (NPG or ASV) seeded in 96 well plates (2500 cells/well) were treated with test compound (dissolved in DMSO) at a series of concentrations (4-fold dilution, top concentration: 10,000 nM). The plates were incubated for 72 h in a 37° C. incubator with 5% CO2, and the number of viable cells in each well were measured indirectly by CellTiter 96® Aqueous One Solution Cell Proliferation Assay (Promega) This assay is a colorimetric method for determining the number of viable cells through measurement of their metabolic activity by detection of enzymatic conversion of tetrazolium salts into blue formazan derivatives. Reagent (20 μL) was added into each well, and the plates were returned to the incubator for 2 h. The absorbance in each well was then measured at 490 nm using an Envision plate reader (Perkin Elmer).

Assay [2] deals with T2, Her2 exon 20 YVMA insertion (A775_G776ins YVMA) (Homo sapiens, UniProt P04626, INS775YVMA).
T2 construct: expressed in transfected cells; host or cells: Ba/F3 (murine pro-B) cells transduced with lentivirus from pLVX-IRES puro
T2 sequence (P04626 with tags, fused parts or gaps INS775YVMA): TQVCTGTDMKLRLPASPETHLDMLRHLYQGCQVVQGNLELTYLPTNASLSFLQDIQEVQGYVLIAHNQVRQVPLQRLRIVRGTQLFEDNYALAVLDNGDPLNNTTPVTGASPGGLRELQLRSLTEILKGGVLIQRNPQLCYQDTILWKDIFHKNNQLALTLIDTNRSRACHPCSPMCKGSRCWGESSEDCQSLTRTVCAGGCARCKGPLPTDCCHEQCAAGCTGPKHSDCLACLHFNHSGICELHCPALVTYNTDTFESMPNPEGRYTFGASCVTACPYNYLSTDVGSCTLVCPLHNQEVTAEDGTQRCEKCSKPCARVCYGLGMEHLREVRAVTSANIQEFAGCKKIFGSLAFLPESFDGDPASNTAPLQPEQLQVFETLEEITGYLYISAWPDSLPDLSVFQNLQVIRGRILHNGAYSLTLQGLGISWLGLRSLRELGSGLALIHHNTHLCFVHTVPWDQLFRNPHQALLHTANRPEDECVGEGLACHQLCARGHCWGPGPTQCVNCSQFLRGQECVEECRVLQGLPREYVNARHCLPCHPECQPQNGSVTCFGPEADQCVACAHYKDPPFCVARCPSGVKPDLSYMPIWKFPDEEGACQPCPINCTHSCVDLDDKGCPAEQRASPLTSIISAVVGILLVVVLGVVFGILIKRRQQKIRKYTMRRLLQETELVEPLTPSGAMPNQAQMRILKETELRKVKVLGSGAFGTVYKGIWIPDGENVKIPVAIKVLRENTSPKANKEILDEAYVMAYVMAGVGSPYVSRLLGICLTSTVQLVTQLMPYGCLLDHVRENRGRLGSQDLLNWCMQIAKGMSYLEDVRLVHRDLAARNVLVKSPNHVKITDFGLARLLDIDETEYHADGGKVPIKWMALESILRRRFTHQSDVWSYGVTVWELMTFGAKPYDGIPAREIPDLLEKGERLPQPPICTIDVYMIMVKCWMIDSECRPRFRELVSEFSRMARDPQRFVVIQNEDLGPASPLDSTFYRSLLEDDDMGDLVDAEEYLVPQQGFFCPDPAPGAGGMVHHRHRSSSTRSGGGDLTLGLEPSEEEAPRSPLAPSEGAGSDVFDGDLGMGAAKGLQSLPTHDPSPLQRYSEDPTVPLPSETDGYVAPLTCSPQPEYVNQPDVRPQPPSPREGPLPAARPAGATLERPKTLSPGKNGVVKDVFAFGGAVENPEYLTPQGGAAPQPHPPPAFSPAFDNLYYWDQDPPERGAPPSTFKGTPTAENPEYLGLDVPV
As to the kind of experiment: Ba/F3-Her2 Exon20 YVMA cell anti-proliferative assay (CellTiter 96 MTS, 72 h). As to conditions: Ba/F3-Her2 Exon20 YVMA cells. An excerpt: A compound's ability in selectively inhibiting Her2 exon 20 YVMA insertion mutations can be assessed using Ba/F3 cells, a murine pro-B cell line, which have been transduced with Her2 Exon20 YVMA insertions. An expression vector, pLVX-IRES puro (Clontech) coding for […] (A775_G776ins YVMA), was transfected into HEK293 cells by the Trans-Lentiviral ORF Packaging System (Thermo Scientific), to produce virus encoding EGFR exon 20 insertions. Ba/F3 (DSMZ) cells maintained in RPMI 1640 medium supplemented with 10% fetal bovine serum, 200 μM L-glutamine/200 μg/mL penicillin/200 μg/mL streptomycin (Life Technology) and 10 ng/mL IL-3 (R&D system), were infected by EGFR Exon20 virus and subsequently selected by puromycin (Life Technology) selection and IL-3 depletion. Ba/F3 cells expressing Her2 Exon20 YVMA insertions (named Ba/F3-Her2 Exon20 YVMA) can proliferate in the absence of IL-3. The anti-proliferative activity of compounds was determined as follows: BaF3-Her2 Exon20 YVMA cells seeded in 96 well plates (2500 cells/well) were treated with test compound (dissolved in DMSO) at a series of concentrations (4-fold dilution, top concentration: 10,000 nM). The plates were incubated for 72 h in a 37° C. incubator with 5% CO2, and the number of viable cells in each well were measured indirectly by CellTiter 96@ Aqueous One Solution Cell Proliferation Assay (Promega; this assay is a colorimetric method for determining the number of viable cells through measurement of their metabolic activity by detection of enzymatic conversion of tetrazolium salts into blue formazan derivatives). Reagent (20 μL) was added into each well, and the plates were returned to the incubator for 2 h. The absorbance in each well was then measured at 490 nm using an Envision plate reader (Perkin Elmer).

Assay [3] addresses T3, human EGFR exon 20 insertion NPG (H773_V774insNPG) (Homo sapiens, UniProt P00533, INS772GNP).
T3 construct: expressed in transfected cells; host or cells: Ba/F3 (murine pro-B) cells transduced with lentivirus from pLVX-IRES puro
As to the kind of experiment: Ba/F3-EGFR-Exon20-NPG cell anti-proliferative assay (CellTiter 96 MTS, 72 h). As to conditions: Ba/F3-EGFR-Exon20-NPG cells. As for the experimental part: as §1

In assay [4] the target is T4, human EGFR E746-A750 deletion and T790M Mutation (Homo sapiens, UniProt P00533, DEL746-750/T790M).
T4 construct: expressed in transfected cells; host or cells: Ba/F3 (murine pro-B) cells transduced with lentivirus from pLVX-IRES puro
T4 sequence (P00533 with tags, fused parts or gaps DEL746-750/T790M): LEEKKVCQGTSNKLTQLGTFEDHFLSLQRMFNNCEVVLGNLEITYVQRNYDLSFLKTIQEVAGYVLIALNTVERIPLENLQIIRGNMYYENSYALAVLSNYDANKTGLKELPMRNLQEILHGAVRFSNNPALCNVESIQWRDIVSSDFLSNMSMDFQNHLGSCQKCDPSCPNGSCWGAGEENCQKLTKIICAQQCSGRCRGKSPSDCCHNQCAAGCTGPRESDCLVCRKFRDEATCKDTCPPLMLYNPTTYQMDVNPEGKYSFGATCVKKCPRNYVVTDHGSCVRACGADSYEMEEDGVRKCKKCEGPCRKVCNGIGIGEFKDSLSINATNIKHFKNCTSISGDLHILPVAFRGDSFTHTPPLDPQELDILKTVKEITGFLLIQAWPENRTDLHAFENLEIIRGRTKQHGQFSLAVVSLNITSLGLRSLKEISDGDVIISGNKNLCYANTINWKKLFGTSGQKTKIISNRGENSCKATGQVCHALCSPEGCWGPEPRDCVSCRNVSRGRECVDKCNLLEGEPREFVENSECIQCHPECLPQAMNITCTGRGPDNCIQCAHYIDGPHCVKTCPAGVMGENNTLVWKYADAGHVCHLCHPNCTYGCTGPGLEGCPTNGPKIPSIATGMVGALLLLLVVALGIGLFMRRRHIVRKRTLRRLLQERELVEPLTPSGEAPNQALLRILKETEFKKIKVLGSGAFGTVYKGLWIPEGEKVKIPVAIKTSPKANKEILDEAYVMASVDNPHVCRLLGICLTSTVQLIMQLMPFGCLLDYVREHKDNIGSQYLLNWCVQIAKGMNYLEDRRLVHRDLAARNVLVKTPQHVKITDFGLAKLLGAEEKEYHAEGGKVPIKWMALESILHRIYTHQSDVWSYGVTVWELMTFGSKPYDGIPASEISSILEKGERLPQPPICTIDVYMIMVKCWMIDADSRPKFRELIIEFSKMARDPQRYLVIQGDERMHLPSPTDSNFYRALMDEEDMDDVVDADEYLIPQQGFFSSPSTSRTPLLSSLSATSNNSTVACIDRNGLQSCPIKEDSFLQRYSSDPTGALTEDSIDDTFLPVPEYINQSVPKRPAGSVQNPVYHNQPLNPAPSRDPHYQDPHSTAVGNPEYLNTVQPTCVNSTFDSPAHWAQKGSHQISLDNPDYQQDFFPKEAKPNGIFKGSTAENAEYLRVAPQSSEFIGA
As to the kind of experiment: Ba/F3-EGFR-Del/T790M cell anti-proliferative assay (CellTiter 96 MTS, 72 h). The settings on record: Ba/F3-EGFR-Del/T790M cells. As for the experimental part:
An expression vector, pLVX-IRES puro (Clontech) coding for human EGFR E746-A750 deletion and T790M Mutation, was transfected into HEK293 cells by the Trans-Lentiviral ORF Packaging System (Thermo Scientific), to produce virus encoding EGFR exon 19 deletion and T790M mutations. Ba/F3 (DSMZ) cells maintained in RPMI 1640 medium supplemented with 10% fetal bovine serum, 200 μM L-glutamine/200 μg/mL penicillin/200 μg/mL streptomycin (Life Technology) and 10 ng/mL IL-3 (R&D system), were infected by EGFR E746-A750 deletion and T790M Mutation virus and subsequently selected by puromycin (Life Technology) selection and IL-3 depletion. […] The anti-proliferative activity of compounds was determined as follows: BaF3-EGFR-Del/T790M cells seeded in 96 well plates (2500 cells/well) were treated with test compound (dissolved in DMSO) at a series of concentrations (4-fold dilution, top concentration: 10,000 nM). The plates were incubated for 72 h in a 37° C. incubator with 5% CO2, and the number of viable cells in each well were measured indirectly by CellTiter 96® Aqueous One Solution Cell Proliferation Assay (Promega; this assay is a colorimetric method for determining the number of viable cells through measurement of their metabolic activity by detection of enzymatic conversion of tetrazolium salts into blue formazan derivatives). Reagent (20 μL) was added into each well, and the plates were returned to the incubator for 2 h. The absorbance in each well was then measured at 490 nm using an Envision plate reader (Perkin Elmer).

T3 sequence (P00533 with tags, fused parts or gaps INS772GNP): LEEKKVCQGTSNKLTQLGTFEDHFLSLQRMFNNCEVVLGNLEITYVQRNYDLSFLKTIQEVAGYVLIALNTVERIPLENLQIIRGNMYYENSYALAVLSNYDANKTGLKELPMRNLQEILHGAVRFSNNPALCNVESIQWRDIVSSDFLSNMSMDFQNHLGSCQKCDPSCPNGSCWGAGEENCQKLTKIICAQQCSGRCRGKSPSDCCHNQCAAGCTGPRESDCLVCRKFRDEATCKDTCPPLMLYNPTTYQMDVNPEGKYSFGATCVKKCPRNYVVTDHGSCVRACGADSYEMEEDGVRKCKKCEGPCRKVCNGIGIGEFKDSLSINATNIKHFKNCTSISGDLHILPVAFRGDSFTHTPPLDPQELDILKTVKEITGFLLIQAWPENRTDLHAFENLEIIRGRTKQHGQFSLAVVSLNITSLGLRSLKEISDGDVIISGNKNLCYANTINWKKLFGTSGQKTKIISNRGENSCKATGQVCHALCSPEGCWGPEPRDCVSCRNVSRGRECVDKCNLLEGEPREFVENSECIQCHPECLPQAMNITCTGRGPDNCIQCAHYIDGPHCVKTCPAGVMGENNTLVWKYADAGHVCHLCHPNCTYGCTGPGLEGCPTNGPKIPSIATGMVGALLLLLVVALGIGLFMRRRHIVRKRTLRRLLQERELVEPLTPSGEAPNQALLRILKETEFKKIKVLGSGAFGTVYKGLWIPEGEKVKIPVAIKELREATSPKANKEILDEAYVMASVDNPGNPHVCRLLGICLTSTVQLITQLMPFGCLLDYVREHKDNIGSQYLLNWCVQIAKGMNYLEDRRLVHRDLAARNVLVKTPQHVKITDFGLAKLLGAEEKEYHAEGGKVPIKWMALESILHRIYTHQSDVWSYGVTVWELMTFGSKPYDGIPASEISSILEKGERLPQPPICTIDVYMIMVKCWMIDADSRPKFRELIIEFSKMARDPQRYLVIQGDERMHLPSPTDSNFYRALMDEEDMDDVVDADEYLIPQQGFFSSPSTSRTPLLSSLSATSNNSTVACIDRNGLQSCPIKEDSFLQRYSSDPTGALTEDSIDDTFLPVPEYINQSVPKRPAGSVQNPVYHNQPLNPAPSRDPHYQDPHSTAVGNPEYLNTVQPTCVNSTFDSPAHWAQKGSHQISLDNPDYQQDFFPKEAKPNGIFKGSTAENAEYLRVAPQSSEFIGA
T1 sequence (P00533 with tags, fused parts or gaps INS769ASV): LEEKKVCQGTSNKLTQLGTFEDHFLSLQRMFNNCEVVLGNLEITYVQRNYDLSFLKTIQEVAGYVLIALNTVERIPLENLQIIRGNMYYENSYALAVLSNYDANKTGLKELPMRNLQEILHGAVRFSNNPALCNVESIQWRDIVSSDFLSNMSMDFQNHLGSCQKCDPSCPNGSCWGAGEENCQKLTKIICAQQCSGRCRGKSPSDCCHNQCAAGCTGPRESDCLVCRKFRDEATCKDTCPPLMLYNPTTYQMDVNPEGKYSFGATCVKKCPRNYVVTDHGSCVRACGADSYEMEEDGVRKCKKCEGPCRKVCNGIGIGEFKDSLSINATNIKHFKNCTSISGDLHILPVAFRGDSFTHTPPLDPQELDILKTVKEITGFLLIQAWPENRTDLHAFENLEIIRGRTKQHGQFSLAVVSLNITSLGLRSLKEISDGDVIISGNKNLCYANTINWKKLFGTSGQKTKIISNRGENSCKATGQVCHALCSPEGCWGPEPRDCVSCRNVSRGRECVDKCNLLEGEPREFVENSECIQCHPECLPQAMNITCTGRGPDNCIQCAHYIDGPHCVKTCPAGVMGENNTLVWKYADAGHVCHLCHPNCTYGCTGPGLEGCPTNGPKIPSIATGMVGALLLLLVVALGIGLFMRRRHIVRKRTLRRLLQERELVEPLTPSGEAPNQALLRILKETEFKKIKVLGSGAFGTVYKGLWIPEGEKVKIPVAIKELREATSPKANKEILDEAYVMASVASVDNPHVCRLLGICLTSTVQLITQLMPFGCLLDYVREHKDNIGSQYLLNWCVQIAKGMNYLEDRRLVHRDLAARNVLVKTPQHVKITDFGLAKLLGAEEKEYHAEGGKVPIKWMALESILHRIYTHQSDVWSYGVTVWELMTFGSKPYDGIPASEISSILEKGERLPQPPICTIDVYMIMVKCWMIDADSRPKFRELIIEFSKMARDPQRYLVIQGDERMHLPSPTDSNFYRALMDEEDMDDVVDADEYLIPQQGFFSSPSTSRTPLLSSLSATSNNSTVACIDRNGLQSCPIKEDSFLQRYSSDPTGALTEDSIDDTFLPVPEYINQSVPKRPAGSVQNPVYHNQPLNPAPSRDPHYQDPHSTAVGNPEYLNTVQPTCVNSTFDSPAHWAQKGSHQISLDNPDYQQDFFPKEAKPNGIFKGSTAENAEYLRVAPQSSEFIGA

Take `C=CC(=O)Nc1cc(Nc2nccc(-c3c(N4CCN(C)C(=O)C4)n4c5c(cccc35)CCC4)n2)c(OC)cc1N(C)CCN(C)C` [Example 94]: the figures for the IC50 in assay [1], in assay [2] and in assay [3] were 0.1 to 0.5 µM, over 1 µM and 0.1 to 0.5 µM, respectively. Further, the “EGFR exon 19 deletion and exon 20 T790M mutation IC50” value in assay [4] is listed as “C (IC50 value for the indicated mutant between greater than about 500 to about 1 μM)”.
`C=CC(=O)Nc1cc(Nc2ncc(-c3cnn(CC)c3)c(-c3cn4c5c(cccc35)CCC4)n2)c(OC)cc1N(C)CCN(C)C` [Example 99]: the IC50 in assay [1], in assay [2] and in assay [3] was under 0.1 µM throughout. For the same molecule, the “EGFR exon 19 deletion and exon 20 T790M mutation IC50” value in assay [4] was “A (IC50 value for the indicated mutant below about 100 nM)”.
With `C=CC(=O)Nc1cc(Nc2ncc(CCC(=O)OC)c(-c3cn4c5c(cccc35)CCC4)n2)c(OC)cc1N(C)CCN(C)C` [Example 39, methyl 3-(2-((5-acrylamido-4-((2-(dimethylamino)ethyl)(methyl)amino)-2-methoxyphenyl)amino)-4-(5,6-dihydro-4H-pyrrolo[3,2,1-ij]quinolin-1-yl)pyrimidin-5-yl)propanoate], the values for the IC50 in assay [1], in assay [2] and in assay [3] were 0.1 to 0.5 µM, 0.1 to 0.5 µM and under 0.1 µM, respectively. In addition, the “EGFR exon 19 deletion and exon 20 T790M mutation IC50” value in assay [4] was “A (IC50 value for the indicated mutant below about 100 nM)”.
Consider `C=CC(=O)Nc1cc(Nc2ncc(C(=O)OCC)c(-c3cn4c5c(cccc35)CCC4)n2)c(OC)cc1N(C)CCN(C)C` [Example 69, ethyl 2-((5-acrylamido-4-((2-(dimethylamino)ethyl)(methyl)amino)-2-methoxyphenyl)amino)-4-(5,6-dihydro-4H-pyrrolo[3,2,1-ij]quinolin-1-yl)pyrimidine-5-carboxylate], for which the IC50 in assay [1], in assay [2] and in assay [3] was under 0.1 µM in each case. Also, the “EGFR exon 19 deletion and exon 20 T790M mutation IC50” value in assay [4] is reported as “A (IC50 value for the indicated mutant below about 100 nM)”.
As to `C=CC(=O)Nc1cc(Nc2ncc(C#N)c(-c3cn4c5c(cccc35)CCC4)n2)c(OC)cc1N1CC[C@H](N(C)C)C1` [Example 16, (S)-N-(5-((5-cyano-4-(5,6-dihydro-4H-pyrrolo[3,2,1-ij]quinolin-1-yl)pyrimidin-2-yl)amino)-2-(3-(dimethylamino)pyrrolidin-1-yl)-4-methoxyphenyl)acrylamide], the IC50 was under 0.1 µM in assay [1], 0.1 to 0.5 µM in assay [2] and under 0.1 µM in assay [3]. Also, the “EGFR exon 19 deletion and exon 20 T790M mutation IC50” value in assay [4] is on record as “A (IC50 value for the indicated mutant below about 100 nM)”.
Regarding `C=CC(=O)Nc1cc(Nc2ncc(C#N)c(-c3cn4c5c(cccc35)CCC4)n2)c(OC)cc1N1CC[C@@H](N(C)C)C1` [Example 15, (R)-N-(5-((5-cyano-4-(5,6-dihydro-4H-pyrrolo[3,2,1-ij]quinolin-1-yl)pyrimidin-2-yl)amino)-2-(3-(dimethylamino)pyrrolidin-1-yl)-4-methoxyphenyl)acrylamide], the IC50 in assay [1] was under 0.1 µM; in assay [2], 0.1 to 0.5 µM; in assay [3], under 0.1 µM. Also, in assay [4], the “EGFR exon 19 deletion and exon 20 T790M mutation IC50” value is recorded as “A (IC50 value for the indicated mutant below about 100 nM)”.
On to `C=CC(=O)Nc1cc(Nc2ncc(F)c(-c3cn4c5c(cccc35)CCC4)n2)c(OC)cc1N(C)CCN(C)C` [Example 17, N-(5-((4-(5,6-dihydro-4H-pyrrolo[3,2,1-ij]quinolin-1-yl)-5-fluoropyrimidin-2-yl)amino)-2-((2-(dimethylamino)ethyl)(methyl)amino)-4-methoxyphenyl)acrylamide], for which the IC50 in assay [1] is 0.1 to 0.5 µM; in assay [2], 0.1 to 0.5 µM; in assay [3], under 0.1 µM. Also, the “EGFR exon 19 deletion and exon 20 T790M mutation IC50” value in assay [4] was “A (IC50 value for the indicated mutant below about 100 nM)”.
As for `C=CC(=O)Nc1cc(Nc2ncc(OC)c(-c3cn4c5c(cccc35)CCC4)n2)c(OC)cc1N(C)CCN(C)C` [Example 19, N-(5-((4-(5,6-dihydro-4H-pyrrolo[3,2,1-ij]quinolin-1-yl)-5-methoxypyrimidin-2-yl)amino)-2-((2-(dimethylamino)ethyl)(methyl)amino)-4-methoxyphenyl)acrylamide], the IC50 in assay [1] was under 0.1 µM; in assay [2], 0.1 to 0.5 µM; in assay [3], under 0.1 µM. The “EGFR exon 19 deletion and exon 20 T790M mutation IC50” value in assay [4] was “A (IC50 value for the indicated mutant below about 100 nM)”.
Turning to `C=CC(=O)Nc1cc(Nc2ncc(/C=C/C#N)c(-c3cn4c5c(cccc35)CCC4)n2)c(OC)cc1N(C)CCN(C)C` [Example 42, (E)-N-(5-((5-(2-cyanovinyl)-4-(5,6-dihydro-4H-pyrrolo[3,2,1-ij]quinolin-1-yl)pyrimidin-2-yl)amino)-2-((2-(dimethylamino)ethyl)(methyl)amino)-4-methoxyphenyl)acrylamide], the IC50 in assay [1], in assay [2] and in assay [3] was under 0.1 µM throughout. In addition, in assay [4], the “EGFR exon 19 deletion and exon 20 T790M mutation IC50” value was “A (IC50 value for the indicated mutant below about 100 nM)”.
In the case of `[2H]C([2H])([2H])N(CCN(C)c1cc(OC)c(Nc2ncc(Cl)c(-c3cn4c5c(cccc35)OCC4)n2)cc1NC(=O)C=C)C([2H])([2H])[2H]` [Example 7, N-(2-((2-(bis(methyl-d3)amino)ethyl)(methyl)amino)-5-((5-chloro-4-(2,3-dihydro-[1,4]oxazino[2,3,4-hi]indol-6-yl)pyrimidin-2-yl)amino)-4-methoxyphenyl)acrylamide], the IC50 in assay [1], in assay [2] and in assay [3] was under 0.1 µM in each case. In addition, the “EGFR exon 19 deletion and exon 20 T790M mutation IC50” value in assay [4] is “A (IC50 value for the indicated mutant below about 100 nM)”.
For `C=CC(=O)Nc1cc(Nc2ncc(C(O)CC)c(-c3cn4c5c(cccc35)CCC4)n2)c(OC)cc1N(C)CCN(C)C` (centres unmarked) [Example 73, N-(5-((4-(5,6-dihydro-4H-pyrrolo[3,2,1-ij]quinolin-1-yl)-5-(1-hydroxypropyl)pyrimidin-2-yl)amino)-2-((2-(dimethylamino)ethyl)-(methyl)amino)-4-methoxyphenyl)acrylamide], the IC50 is under 0.1 µM in assay [1], 0.1 to 0.5 µM in assay [2] and under 0.1 µM in assay [3]. In addition, the “EGFR exon 19 deletion and exon 20 T790M mutation IC50” value in assay [4] is listed as “A (IC50 value for the indicated mutant below about 100 nM)”.

A word on the IC50: it is the concentration at which inhibition is half-maximal.

These data come from patent US20170166598A1, “HETEROARYL COMPOUNDS FOR KINASE INHIBITION” (ARIAD PHARMACEUTICALS, INC., priority 2014, published 2017).
